Data from US20240182449A1, “CRYSTALLINE FORMS OF AN MK2 INHIBITOR” (XinThera, Inc., priority 2022, published 2024).
≈ marks a conversion by molar mass, not a printed value. Where “and” joins values, the source holds several entries; their conditions need not be identical. Identical values can stand only once. Entries after “also recorded” stand apart in the source; their conditions may differ.

Assays:
[1] = Slurry conversion of Form I and Form X in solvents (XRPD result); type: physicochemical; conditions: for XRPD Result-Day 3: slurry at 80° C.
Procedure: Appropriate amount of Form I was added into different solvents to make suspensions, which were kept stirring at RT and 50° C. for 3 and 7 days, and at 80° C. for 3 days. Solid samples were collected by centrifugation and analyzed by XRPD. Forms I-IV, VII and VIII were obtained by slurry experiments of Form I.
Appropriate amount of Form X was added into different solvents to make suspensions, which were kept stirring at RT and 50° C. for 3 and 7 days, and at 80° C. for 3 days. Solid samples were collected by centrifugation and analyzed by XRPD.

[2] = Mechanical stability (manual grinding, XRPD); type: physicochemical
Procedure: Appropriate amount of Form X was manually ground by pestle and mortar for about 2 minutes and 5 minutes, and then analyzed by XRPD.

[3] = Slurry competition experiments (thermodynamic stability relationship); type: physicochemical; conditions: RT, also in pure water
Procedure: Slurry competition experiments were carried out between anhydrous and hydrates, to establish stability relationships. Appropriate amount of Form I was suspended in different solvents for pre-saturation at RT. Then the filtrate was added into equal amount of different forms, and the mixture was kept stirring at RT for certain time before XRPD tests.

[4] = Solubility in bio-relevant media (SGF, FaSSIF, FeSSIF) and water; type: physicochemical; conditions: for Solubility: 37° C.
Procedure: The solubility of Form X was measured in bio-relevant media (SGF, FaSSIF and FeSSIF) and water at 37° C. with 800 rpm for up to 24 hours. About 15 mg of Form X was weighed into sample vials and then 3 mL of three bio-relevant media and water were added to make suspensions, respectively. At 0.5, 2 and 24 hours, about 1 mL of each suspension was filtered, the filtrates were analyzed by HPLC and pH, and the filter cakes were analyzed by XRPD. Duplicate samples were prepared. […] A little higher solubility in FeSSIF was possibly due to the effect of bile salt.

[5] = Solubility estimation at RT by visual observation in selected solvent systems
Procedure: The solubility of compound 1 Form I and Form X was estimated at RT by visual observation in selected solvent systems. Approximately 5 mg solids were weighed into 8 mL glass vial, and then solvent was added stepwise until solids were dissolved completely or a total of solvent volume reached 5 mL.

[6] = pH solubility profile; type: physicochemical
Procedure: Different pH buffers (pH 1.0, 3.0, 5.0, 6.8 and 9.0) were prepared by method in Table 20. Then 10 mg of Form X was added into 2 mL of different buffers (pH=1.0, 3.0, 5.0, 6.8 and 9.0) to make suspensions. The suspensions were kept shaking with a speed of 1000 rpm at 25° C. for 4 and 24 hours. At each point, the suspensions were centrifuged, and the supernatant was inspected by HPLC/pH, and the wet cakes were analyzed by XRPD. Duplicate samples were prepared.

[7] = Solid-state stability (HPLC purity and XRPD); type: physicochemical; conditions: for solid-state stability (form change, purity): 7 days
Procedure: Solid-state stability of Form X was conducted at 60° C. (capped) and 40° C./75% RH (open) for 7 days. The stability sample was dissolved in diluent to prepare solution at ˜1 mg/mL for HPLC purity analysis. Solid samples were analyzed by XRPD to check the crystal form.

[8] = Hygroscopicity by DVS; type: physicochemical
Procedure: DVS was performed on Form X, to evaluate its hygroscopicity and physical stability under different humidity.
Moisture sorption/desorption data were collected on a DVS instrument. Appropriate amount of sample was placed into a tared sample chamber and automatically weighed. The sample was analyzed with the setting parameters in the table below.

[9] = slurry at 50° C., Acetone/water (1/3)
[10] = slurry at 50° C., MeOH/Water (1/4)
[11] = slurry at RT, Acetone/water (1/3)

[2H]C([2H])(Oc1cc(C)n(-c2c(C)cnc(-n3ccc(C(C)(C)O)n3)c2F)c(=O)c1Cl)c1ncc(F)cc1F [Form X]
XRPD Result Day 3 [1, 9]: Form X
XRPD Result Day 7 [1, 9]: Form X
XRPD Result Day 3 ([1]; slurry at 50° C., IPA): Form X
XRPD Result Day 7 ([1]; slurry at 50° C., IPA): Form X
XRPD Result Day 3 ([1]; slurry at 50° C., IPE): Form X
XRPD Result Day 7 ([1]; slurry at 50° C., IPE): Form X
XRPD Result Day 3 ([1]; slurry at 50° C., MTBE): Form X
XRPD Result Day 7 ([1]; slurry at 50° C., MTBE): Form III
XRPD Result Day 3 [1, 10]: Form X
XRPD Result Day 7 [1, 10]: Form X
XRPD Result Day 3 ([1]; slurry at 50° C., Toluene): Form X
XRPD Result Day 7 ([1]; slurry at 50° C., Toluene): Form X
XRPD Result Day 3 ([1]; slurry at 50° C., Water): Form X
XRPD Result Day 7 ([1]; slurry at 50° C., Water): Form X
XRPD Result-Day 3 ([1]; CYH): Form X
XRPD Result-Day 3 ([1]; Heptane): Form X
XRPD Result-Day 3 ([1]; IPA/Water (1/2)): Clear
XRPD Result-Day 3 ([1]; IPA/Water (1/3)): Form X
XRPD Result-Day 3 ([1]; IPAc/Heptane (1/2)): Form X
XRPD Result-Day 3 ([1]; MeCYH): Form X
XRPD Result-Day 3 ([1]; Water): Form X
XRPD Result Day 3 [1, 11]: Form X
XRPD Result Day 7 [1, 11]: Form X
XRPD Result Day 3 ([1]; slurry at RT, EtOH): Clear
XRPD Result Day 7 ([1]; slurry at RT, EtOH): Clear
XRPD Result Day 3 ([1]; slurry at RT, IPA): Form X
XRPD Result Day 7 ([1]; slurry at RT, IPA): Form X
XRPD Result Day 3 ([1]; slurry at RT, IPAc): Form X
XRPD Result Day 7 ([1]; slurry at RT, IPAc): Form X
XRPD Result Day 3 ([1]; slurry at RT, IPE): Form X
XRPD Result Day 7 ([1]; slurry at RT, IPE): Form X
XRPD Result Day 3 ([1]; slurry at RT, MIBK): Form X
XRPD Result Day 7 ([1]; slurry at RT, MIBK): Form X
XRPD Result Day 3 ([1]; slurry at RT, MTBE): Form III
XRPD Result Day 7 ([1]; slurry at RT, MTBE): Form III
XRPD Result Day 3 ([1]; slurry at RT, MeOH/water (1/4)): Form X
XRPD Result Day 7 ([1]; slurry at RT, MeOH/water (1/4)): Form X
XRPD Result Day 3 ([1]; slurry at RT, Toluene): Form X
XRPD Result Day 7 ([1]; slurry at RT, Toluene): Form X
XRPD Result Day 3 ([1]; slurry at RT, Water): Form X
XRPD Result Day 7 ([1]; slurry at RT, Water): Form X
Crystallinity after manual grinding ([2]; manual grinding): with slight crystallinity decrease after
crystal form after grinding ([2]; manually ground about 2 and 5 minutes): remained unchanged with slight crystallinity decrease
thermodynamic stability in slurry competition of anhydrous forms and hydrates [3]: thermodynamically more stable even in pure water at room temperature; also recorded: thermodynamically stable even in pure water
XRPD of filter cake after solubility test ([4]; 0.5/2/24 h, all media (SGF, FaSSIF, FeSSIF, water)): ^a Form X remained unchanged during solubility test in all media
Solubility ([4]; FaSSIF, 0.5 h): 69 µg/mL (≈ 132 µM)
Solubility ([4]; FaSSIF, 2 h): 70 µg/mL (≈ 134 µM)
Solubility ([4]; FaSSIF, 24 h): 74 µg/mL (≈ 142 µM)
Solubility ([4]; FeSSIF, 0.5 h): 97 µg/mL (≈ 186 µM)
Solubility ([4]; FeSSIF, 2 h): 97 µg/mL (≈ 186 µM)
Solubility ([4]; FeSSIF, 24 h): 124 µg/mL (≈ 238 µM)
Solubility ([4]; SGF, 0.5 h): 74 µg/mL (≈ 142 µM)
Solubility ([4]; SGF, 2 h): 70 µg/mL (≈ 134 µM)
Solubility ([4]; SGF, 24 h): 66 µg/mL (≈ 126 µM)
Solubility ([4]; Water, 0.5 h): 74 µg/mL (≈ 142 µM)
Solubility ([4]; Water, 2 h): 74 µg/mL (≈ 142 µM)
Solubility ([4]; Water, 24 h): 70 µg/mL (≈ 134 µM)
crystal form after solubility test ([4]; all media, XRPD of filter cake): remained unchanged
estimated solubility compared with Form I [5]: decreased solubility in some solvents
XRPD of wet cake after pH solubility test ([6]; 4/24 h, all pH buffers): Unchanged
crystal form after pH solubility test ([6]; XRPD of wet cake): remained unchanged
Solubility (1T/2T, mg/mL) ([6]; pH 1.0, 25° C., 4 h): 0.074 mg/mL (≈ 142 µM)
Solubility (1T/2T, mg/mL) ([6]; pH 1.0, 25° C., 24 h): 0.075 mg/mL (≈ 144 µM)
pH-dependence of solubility ([6]; pH 1.0-9.0 buffers, 25° C.): no pH-dependence
Solubility (1T/2T, mg/mL) ([6]; pH 3.0 buffer, 25° C., 4 h): 0.060 mg/mL (≈ 115 µM)
Solubility (1T/2T, mg/mL) ([6]; pH 3.0 buffer, 25° C., 24 h): 0.073 mg/mL (≈ 140 µM)
Solubility (1T/2T, mg/mL) ([6]; pH 5.0 buffer, 25° C., 4 h): 0.061 mg/mL (≈ 117 µM)
Solubility (1T/2T, mg/mL) ([6]; pH 5.0 buffer, 25° C., 24 h): 0.060 mg/mL (≈ 115 µM)
Solubility (1T/2T, mg/mL) ([6]; pH 6.8 buffer, 25° C., 4 h): 0.060 mg/mL (≈ 115 µM)
Solubility (1T/2T, mg/mL) ([6]; pH 6.8 buffer, 25° C., 24 h): 0.060 mg/mL (≈ 115 µM)
Solubility (1T/2T, mg/mL) ([6]; pH 9.0 buffer, 25° C., 4 h): 0.060 mg/mL (≈ 115 µM)
Solubility (1T/2T, mg/mL) ([6]; pH 9.0 buffer, 25° C., 24 h): 0.062 mg/mL (≈ 119 µM)
Stability (physical) ([7]; 40° C./75% RH (open), 1 week): Physically stable at 40° C./75% RH (open)
XRPD Result ([7]; 40° C./75% RH (open), 1 week): Form X
Purity (area %) ([7]; 40° C./75% RH (open), 1 week, duplicate samples): 99.94 area % and 99.93 area %
solid-state stability (form change, purity) ([7]; 40° C./75% RH (open)): physically and chemically stable; also recorded: No form change or purity decrease
XRPD Result ([7]; 60° C. (capped), 1 week): Form X
Purity (area %) ([7]; 60° C. (capped), 1 week, duplicate samples): 99.93 area % and 99.94 area %
solid-state stability (form change, purity) ([7]; 60° C. (capped)): physically and chemically stable; also recorded: No form change or purity decrease
Stability (physical) ([7]; 60° C., 1 week): Physically stable at 40° C./75% RH (open)
Purity (area %) ([7]; Initial): 99.94 area %
XRPD Result ([7]; Initial): Form X
XRPD after DVS [8]: No change
hygroscopicity ([8]; DVS): non-hygroscopic
water uptake ([8]; DVS, 80% RH): 0.11%
water uptake ([8]; DVS, 90% RH): 0.16%
crystal form after DVS test ([8]; after DVS test): remained unchanged
DVS Wt. Gain % ([8]; at 80% RH): 0.11%
DVS Wt. Gain % ([8]; at 90% RH): 0.16%
Hygroscopicity (DVS) ([8]; classification in words): non-hygroscopic
